Experimental data taken from ChEMBL document CHEMBL3112450, “Synthesis and in vitro antitumor evaluation of primary amine substituted quinazoline linked benzimidazole” (Bioorg Med Chem Lett, 2014).

Key:
Type in all cases: functional
MOLT-4 = experiment: Cytotoxicity against human MOLT4 cells assessed as cell growth at 10^-4 M after 48 hrs by SRB assay; conditions: MOLT-4, 48 h, read-out: Activity
LOX IMVI = experiment: Cytotoxicity against human LOXIMVI cells assessed as cell growth at 10^-5 M after 48 hrs by SRB assay; conditions: read-out: Activity
ACHN = experiment: Cytotoxicity against human ACHN cells assessed as cell growth at 10^-7 M after 48 hrs by SRB assay; conditions: read-out: Activity
SNB-75 = experiment: Cytotoxicity against human SNB75 cells assessed as cell growth at 10^-5 M after 48 hrs by SRB assay; conditions: SNB-75, 48 h, read-out: Activity
[1] = Cytotoxicity against human OVCAR5 cells after 48 hrs by SRB assay; conditions: OVCAR-5, 48 h
MCF7 = experiment: Cytotoxicity against human MCF7 cells assessed as cell growth at 10^-5 M after 48 hrs by SRB assay; conditions: MCF7, 48 h, read-out: Activity
NCI-H460 = experiment: Cytotoxicity against human NCI-H460 cells assessed as cell growth at 10^-8 M after 48 hrs by SRB assay; conditions: NCI-H460, 48 h, read-out: Activity
HOP-92 [2] = experiment: Cytotoxicity against human HOP92 cells assessed as cell growth at 10^-8 M after 48 hrs by SRB assay; conditions: HOP-92, 48 h, read-out: Activity
COLO 205 = experiment: Cytotoxicity against human COLO205 cells assessed as cell growth at 10^-5 M after 48 hrs by SRB assay; conditions: COLO 205, 48 h, read-out: Activity
HCT-116 = experiment: Cytotoxicity against human HCT116 cells assessed as cell growth at 10^-5 M after 48 hrs by SRB assay; conditions: HCT-116, 48 h, read-out: Activity
HOP-92 [3] = experiment: Cytotoxicity against human HOP92 cells assessed as cell growth at 10^-5 M after 48 hrs by SRB assay; conditions: HOP-92, 48 h, read-out: Activity
OVCAR-3 = experiment: Cytotoxicity against human OVCAR3 cells assessed as cell growth at 10^-5 M after 48 hrs by SRB assay; conditions: OVCAR-3, 48 h, read-out: Activity
[4] = Cytotoxicity against human NCI-ADR-RES cells assessed as cell growth at 10^-5 M after 48 hrs by SRB assay; conditions: read-out: Activity
A498 = experiment: Cytotoxicity against human A498 cells assessed as cell growth at 10^-5 M after 48 hrs by SRB assay; conditions: A498, 48 h, read-out: Activity
K562 = experiment: Cytotoxicity against human K562 cells assessed as cell growth at 10^-4 M after 48 hrs by SRB assay; conditions: K562, 48 h, read-out: Activity
SK-OV-3 = experiment: Cytotoxicity against human SKOV3 cells assessed as cell growth at 10^-6 M after 48 hrs by SRB assay; conditions: SK-OV-3, 48 h, read-out: Activity
SK-MEL-5 = experiment: Cytotoxicity against human SK-MEL-5 cells assessed as cell growth at 10^-8 M after 48 hrs by SRB assay; conditions: SK-MEL-5, 48 h, read-out: Activity
SF-268 = experiment: Cytotoxicity against human SF268 cells assessed as cell growth at 10^-5 M after 48 hrs by SRB assay; conditions: SF-268, 48 h, read-out: Activity
SR = experiment: Cytotoxicity against human SR cells assessed as cell growth at 10^-8 M after 48 hrs by SRB assay; conditions: read-out: Activity
MDA-MB-435 = experiment: Cytotoxicity against human MDA-MB-435 cells assessed as cell growth at 10^-5 M after 48 hrs by SRB assay; conditions: MDA-MB-435, 48 h, read-out: Activity
[5] = Cytotoxicity against human OVCAR4 cells assessed as cell growth at 10^-5 M after 48 hrs by SRB assay; conditions: OVCAR-4, 48 h, read-out: Activity
[6] = Cytotoxicity against human OVCAR5 cells assessed as cell growth at 10^-8 M after 48 hrs by SRB assay; conditions: OVCAR-5, 48 h, read-out: Activity
SF-539 = experiment: Cytotoxicity against human SF539 cells assessed as cell growth at 10^-5 M after 48 hrs by SRB assay; conditions: SF-539, 48 h, read-out: Activity
PC-3 = experiment: Cytotoxicity against human PC3 cells assessed as cell growth at 10^-5 M after 48 hrs by SRB assay; conditions: PC-3, 48 h, read-out: Activity
NCI-H226 = experiment: Cytotoxicity against human NCI-H226 cells assessed as cell growth at 10^-7 M after 48 hrs by SRB assay; conditions: NCI-H226, 48 h, read-out: Activity
SK-MEL-28 = experiment: Cytotoxicity against human SK-MEL-28 cells assessed as cell growth at 10^-4 M after 48 hrs by SRB assay; conditions: SK-MEL-28, 48 h, read-out: Activity
T47D = experiment: Cytotoxicity against human T47D cells assessed as cell growth at 10^-5 M after 48 hrs by SRB assay; conditions: read-out: Activity
RXF 393 = experiment: Cytotoxicity against human RXF393 cells assessed as cell growth at 10^-5 M after 48 hrs by SRB assay; conditions: RXF 393, 48 h, read-out: Activity
SF-295 = experiment: Cytotoxicity against human SF295 cells assessed as cell growth at 10^-5 M after 48 hrs by SRB assay; conditions: SF-295, 48 h, read-out: Activity
MDA-MB-231 = experiment: Cytotoxicity against human MDA-MB-231 cells assessed as cell growth at 10^-5 M after 48 hrs by SRB assay; conditions: MDA-MB-231, 48 h, read-out: Activity
[7] = Cytotoxicity against human UACC257 cells assessed as cell growth at 10^-5 M after 48 hrs by SRB assay; conditions: UACC-257, 48 h, read-out: Activity
SNB-19 = experiment: Cytotoxicity against human SNB19 cells after 48 hrs by SRB assay; conditions: SNB-19, 48 h
KM12 = experiment: Cytotoxicity against human KM12 cells assessed as cell growth at 10^-5 M after 48 hrs by SRB assay; conditions: KM12, 48 h, read-out: Activity
SK-MEL-2 = experiment: Cytotoxicity against human SK-MEL-2 cells assessed as cell growth at 10^-7 M after 48 hrs by SRB assay; conditions: SK-MEL-2, 48 h, read-out: Activity
[8] = Cytotoxicity against human Hs578T cells assessed as cell growth at 10^-5 M after 48 hrs by SRB assay; conditions: Hs-578T, read-out: Activity
SN12C = experiment: Cytotoxicity against human SN12C cells assessed as cell growth at 10^-5 M after 48 hrs by SRB assay; conditions: read-out: Activity
HL-60(TB) = experiment: Cytotoxicity against human HL-60(TB) cells assessed as cell growth at 10^-4 M after 48 hrs by SRB assay; conditions: HL-60, 48 h, read-out: Activity
U-251 = experiment: Cytotoxicity against human U251 cells after 48 hrs by SRB assay; conditions: U-251, 48 h

## C=CCn1c(C)nc2ccc(Nc3nc(Nc4ccc5nc(C)n(CC=C)c5c4)c4ccccc4n3)cc21
MOLT-4
  growth at 100 µM: 2%
LOX IMVI
  growth at 10 µM: -91%
ACHN
  growth at 0.1 µM: 92%
SNB-75
  growth at 10 µM: -95.2%
[1]
  GI50: 1.7 µM
  LC50: 5.62 µM
  TGI: 3.09 µM
MCF7
  growth at 10 µM: -100%
NCI-H460
  growth at 0.01 µM: 102%
HOP-92 [2]
  growth at 0.01 µM: 92%
COLO 205
  growth at 10 µM: -100%
HCT-116
  growth at 10 µM: -100%
HOP-92 [3]
  growth at 10 µM: -80%
OVCAR-3
  growth at 10 µM: -99%
[4]
  growth at 10 µM: -25%
A498
  growth at 10 µM: -91%
K562
  growth at 100 µM: 1%
SK-OV-3
  growth at 1 µM: 96%
SK-MEL-5
  growth at 0.01 µM: 94%
SF-268
  growth at 10 µM: -77%
SR
  growth at 0.01 µM: 97%
MDA-MB-435
  growth at 10 µM: -84%
[5]
  growth at 10 µM: -100%
[6]
  growth at 0.01 µM: 95%
SF-539
  growth at 10 µM: -96%
PC-3
  growth at 10 µM: -82%
NCI-H226
  growth at 0.1 µM: 86%
SK-MEL-28
  growth at 100 µM: -39%
T47D
  growth at 10 µM: -91%
RXF 393
  growth at 10 µM: -93%
SF-295
  growth at 10 µM: -80%
MDA-MB-231
  growth at 10 µM: -100%
[7]
  growth at 10 µM: -91%
SNB-19
  GI50: 1.69 µM
  TGI: 3.56 µM
KM12
  growth at 10 µM: -94%
SK-MEL-2
  growth at 0.1 µM: 99%
[8]
  growth at 10 µM: -52%
SN12C
  growth at 10 µM: -100%
HL-60(TB)
  growth at 100 µM: -32%
U-251
  GI50: 1.62 µM
  TGI: 2.97 µM
